Assay: In vitro skin permeation profiles (permeation cell)
Format: in vitro ADME, human
Procedure: Comparison In Vitro Skin Permeation Profiles of Amanidine Prodrugs • System: in-vitro permeation cell (9 ml acceptor volume/1.539 cm^2 diffusion area, 32° C.) • Acceptor medium: phosphate buffer pH 5.5+0.1% NaN3 according to DAB 10 • Active ingredient: benzamidine, benzamidoxime (from Ex. 1) • Skin type: human full skin, ID 899 (belly person) • Vehicle: suspension in olive oil (2% by weight, 50 mg suspension per cell), applied to a circular nonwoven disk made of synthetic wool ([…] type I/20) and occlusively covered with a PSA film (silicone adhesive) as “over-plaster”.

Compound `N=C(N)c1ccccc1` [Benzamidine, benzamidine, reference compound] has a permeated amount (0 h, human full skin, 2% by weight suspension in olive oil, acceptor phosphate buffer pH 5.5, 32° C.) of 0, a permeated amount (8 h, human full skin, 2% by weight suspension in olive oil, acceptor phosphate buffer pH 5.5, 32° C.) of 2.24 and a permeated amount (24 h, human full skin, 2% by weight suspension in olive oil, acceptor phosphate buffer pH 5.5, 32° C.) of 13.7. It also gave a permeated amount (32 h, human full skin, 2% by weight suspension in olive oil, acceptor phosphate buffer pH 5.5, 32° C.) of 21.2 and a permeated amount (48 h, human full skin, 2% by weight suspension in olive oil, acceptor phosphate buffer pH 5.5, 32° C.) of 41.3.
For `NC(=NO)c1ccccc1` [Benzamidinoxime, Benzamidoxime], the “comparison of the permeated amounts of benzamidine and benzamidoxime” value was “advantage of the benzamidoxime being clearly visible”, the permeated amount (female, human, 0 h, 2 % by weight, pH 5.5) was 0 and the permeated amount (female, human, 8 h, 2 % by weight, pH 5.5) was 50.2. For the same compound, the permeated amount (female, human, 24 h, 2 % by weight, pH 5.5) was 235, the permeated amount (female, human, 32 h, 2 % by weight, pH 5.5) was 315 and the permeated amount (female, human, 48 h, 2 % by weight, pH 5.5) was 403.

From patent US20110311593A1, “N-HYDROXYLATED AMIDINE-, GUANIDINE- AND/OR AMINOHYDRAZONE-TYPE PRODRUGS FOR APPLICATION ON THE SKIN” (priority 2009, published 2011)
